Data on one compound can be found in patent publication US6683069B1, “Methods and compositions for reducing UV-induced inhibition of collagen synthesis in human skin” (Regents of the University of Michigan, priority 1998, dated 2004).

Assay [1] concerns Type III procollagen protein. The assay can be described thus: Immunohistological staining for Type III procollagen protein in biopsies of retinoid-pretreated, UV-exposed human skin. The note with it: 0.1% topical, pretreatment 24 h before 2 MEDs UV, biopsy 24 h after exposure; FIG. 14D. It counts as in vivo. On the procedure: (§1) We tested whether retinoids, in particular all-trans retinoic acid, would have any effect on the loss of procollagen mRNA and/or the procollagen proteins in human skin after exposure to UV radiation. (Unless otherwise noted, the retinoic acid used in the experiments described herein was all-trans.) Separate areas of skin from each of our volunteers were treated with either 0.1% retinoic acid in vehicle or with vehicle alone; the vehicle was composed of a mixture of ethanol and polyethylene glycol in a 70:30 volumetric ratio. Thereafter, these areas of skin were exposed to 2 MEDs (typically) of UV radiation and then biopsied at specific times after the exposure; the biopsies were analyzed as described previously. […]
(§2) Immunohistology: Immunihistology of Type I and Type III pN collagens was performed as has been described by Griffiths, C. […] Type I pN collagen was detected with mouse monoclonal IgG1 antibody (SP1.D8; available from Univ. of Iowa Dept. of Biological Sciences Developmental Studies Hybridoma Bank, Iowa City, Iowa) raised against the aminopropeptide region of human Type I procollagen (Foellmer, H. G., et al., Euro. J. Biochm., 134:183-189 (1983)). Type III pN collagen was detected with affinity-purified rabbit polyclonal antibody to aminopropeptide of Type III procollagen (identical to that used for Western analysis). […]

In assay [2] the test system is Type I procollagen and pN collagen precursor protein. Description: Western analysis of Type I procollagen protein and pN precursor protein in retinoic acid-pretreated, UV-exposed human skin. It is filed as in vivo. The note with it: 0.1% topical, FIG. 12. On the procedure: We tested whether retinoids, in particular all-trans retinoic acid, would have any effect on the loss of procollagen mRNA and/or the procollagen proteins in human skin after exposure to UV radiation. (Unless otherwise noted, the retinoic acid used in the experiments described herein was all-trans.) Separate areas of skin from each of our volunteers were treated with either 0.1% retinoic acid in vehicle or with vehicle alone; the vehicle was composed of a mixture of ethanol and polyethylene glycol in a 70:30 volumetric ratio. Thereafter, these areas of skin were exposed to 2 MEDs (typically) of UV radiation and then biopsied at specific times after the exposure; the biopsies were analyzed as described previously. The site of the volunteers' skin to be exposed to UV radiation was treated prior to UV exposure with either the all-trans retinoic acid or the control vehicle. […] Nevertheless, it should be understood that a period of pretreatment with retinoid more than eight and less than twenty-four hours before UV exposure may likely be sufficient to prevent the reduction in collagen biosynthesis we have observed. Furthermore, it should be understood that in all of the following examples treatment with a retinoid (e.g., “retinoic acid-treated”) or the vehicle (e.g.,. “vehicle-treated”) should each be understood as pretreatment 24 hours before UV exposure. […]
(§3) Western analysis of proteins. Type I procollagen and pN collagen precursor protein, as well as Type III procollagen were detected in skin extracts by Western analysis as described by G. J. Fisher et al. (in “Immunological identification and functional quantitation of retinoic acid and retinoid X receptor proteins in human skin,” J. Biol. Chem., 269:20629-20635 (1994)).
(§4) Immunoreactive proteins were visualized by enhanced chemiluminescence detection and quantified by laser densitometry, or by enhanced chemifluorescence detection and quantified by a Storm imager (Molecular Dynamics, Sunnyvale, Calif.).

Assay [3] has as its system Type I procollagen protein. Description: Immunohistological staining for Type I procollagen protein in biopsies of retinoid-pretreated, UV-exposed human skin. The note with it: 0.1% topical. It counts as in vivo. The method, then:
as §1, §2

The test system of assay [4] is soluble collagen. Description: Soluble collagen (hydroxyproline content) in retinoid-pretreated, UV-exposed human skin in vivo. The following applies: 0.1% topical. The method, then:
We tested whether retinoids, in particular all-trans retinoic acid, would have any effect on the loss of procollagen mRNA and/or the procollagen proteins in human skin after exposure to UV radiation. (Unless otherwise noted, the retinoic acid used in the experiments described herein was all-trans.) Separate areas of skin from each of our volunteers were treated with either 0.1% retinoic acid in vehicle or with vehicle alone; the vehicle was composed of a mixture of ethanol and polyethylene glycol in a 70:30 volumetric ratio. Thereafter, these areas of skin were exposed to 2 MEDs (typically) of UV radiation and then biopsied at specific times after the exposure; the biopsies were analyzed as described previously. The site of the volunteers' skin to be exposed to UV radiation was treated prior to UV exposure with either the all-trans retinoic acid or the control vehicle. […] Nevertheless, it should be understood that a period of pretreatment with retinoid more than eight and less than twenty-four hours before UV exposure may likely be sufficient to prevent the reduction in collagen biosynthesis we have observed. Furthermore, it should be understood that in all of the following examples treatment with a retinoid (e.g., “retinoic acid-treated”) or the vehicle (e.g.,. “vehicle-treated”) should each be understood as pretreatment 24 hours before UV exposure.
We also assayed the biopsies from our volunteers for soluble collagen (measured as hydroxyproline content) in vehicle- and retinoid-treated skin, both before and after UV exposure. […] After UV exposure, the vehicle-treated skin (VEH+UV) had only about 40% of the soluble collagen as was present prior to exposure. The retinoid-treated area (RA+UV) still had reduced amounts of soluble collagen when compared with skin prior to UV exposure, yet the levels were almost twice what was found in the vehicle-treated/UV-exposed skin.
As mentioned above, the area of the volunteers' skin to be treated with a retinoid prior to UV exposure was pretreated 24 hours prior to exposure. We pretreated certain volunteer's sun-protected skin with 0.1% all trans retinoic acid 8 hours prior to exposure to 2 MEDs of UV radiation. […] Thus, as mentioned above, to prevent UV-induced loss of collagen synthesis using a retinoid, pretreatment 24 hours before exposure yields the desired prophylactic effect, whereas pretreatment 8 hours before exposure yields no significant prophylaxis.
Hydroxyproline Analysis: hydroxyproline analysis using the Amino Acid Analyzer Model 420H (Applied Biosystems, Foster City, Calif.) automates precolumn phenylthiocarbamyl-amino acid (PTC-AA) analysis. The Model 420H analyzer first hydrolyzes proteins to liberate free amino acids. Once hydrolyzed, the free amino acids are derivatized with phenylisothiocynanate (PITC) to form PTC-AA derivatives. A reverse-phase column in a temperature-controlled oven separates the PTC-AAs. Concentration of hydroxyproline in the skin extract was determined based upon a hydroxyproline standard.

Assay [5] concerns Type III procollagen mRNA. The assay can be described thus: In situ hybridization for Type III procollagen mRNA in biopsies of retinoid-pretreated, UV-exposed human skin. It is filed as in vivo. The following applies: 0.1% topical, pretreatment 24 h before UV; FIG. 13D. On the procedure: as §1, with “previously. The site of the volunteers' skin to be exposed to UV radiation was treated prior to UV exposure with either the all-trans retinoic acid or the control vehicle.” for “previously.”
(§5) In Situ Hybridization: Digoxigenin-containing sense and antisense riboprobes to detect human type I and Type III procollagen RNA (mRNA) were synthesized with the use of T3 and T7 ribonucleic acid polymerases. […] Hybridization signals were detected immunohistochemically with the use of alkaline phosphatase-conjugated antidigoxigenin antibody.

The test system of assay [6] is Type III procollagen protein and pN collagen precursor protein. The assay can be described thus: Western analysis of Type III procollagen protein and pN precursor protein in retinoic acid-pretreated, UV-exposed human skin. It counts as in vivo. The note with it: 0.1% topical, FIG. 15. On the procedure:
as §1, §3, §4

In assay [7] the test system is Type I procollagen mRNA. Description: In situ hybridization for Type I procollagen mRNA in biopsies of retinoid-pretreated, UV-exposed human skin. It is filed as in vivo. The note with it: 0.1% topical. On the procedure: as §1, with “previously. The site of the volunteers' skin to be exposed to UV radiation was treated prior to UV exposure with either the all-trans retinoic acid or the control vehicle.” for “previously.”
as §5

The mark [8] stands for this setting: pretreatment 24 h before 2 MEDs UV, biopsy 24 h after exposure.

Turning to `CC1=C(/C=C/C(C)=C/C=C/C(C)=C/C(=O)O)C(C)(C)CCC1` [all-trans retinoic acid], in assay [1], the “Type III procollagen protein staining after UV vs prior to UV exposure” value was “almost the same pattern and intensity of staining”. In assay [2] (no UV, vehicle normalized to 1.0), the “Amounts of Type I procollagen and pN precursor protein vs vehicle-treated skin, unexposed” value is on record as “essentially the same amounts”. For the same compound, in assay [2] (setting [8]), the “Type I procollagen protein after UV, relative to control” value was “greater than 80 % of the control” and the “pN collagen precursor protein (Type I) after UV, relative to control” value is “greater than 80 % of the control”. In assay [3] (no UV, FIG. 11B vs 11A), the “Type I procollagen protein staining vs vehicle-treated skin, prior to UV exposure” value is recorded as “no appreciable difference”. Besides, in assay [3] (pretreatment 24 h before 2 MED UV, biopsy 24 h after exposure, FIG. 11D), the “Type I procollagen protein staining after UV vs before UV exposure” value was “comparable, though slightly reduced”. For the same compound, the “Soluble collagen (hydroxyproline content) vs vehicle-treated skin, prior to UV exposure” value in assay [4] (24 h pretreatment, no UV, FIG. 16) was “about the same”. In addition, in assay [4] (after 8 hours, no UV, FIG. 17), the “Soluble collagen (hydroxyproline content) vs vehicle-treated skin, without UV exposure” value is “the same”. The “Soluble collagen (hydroxyproline content) 24 hours after UV exposure vs vehicle-treated skin” value in assay [4] (pretreatment 8 hours before 2 MEDs UV, FIG. 17) was “essentially the same”. The “Soluble collagen (hydroxyproline content) after UV, relative to vehicle-treated/UV-exposed skin” value in assay [4] (pretreatment 24 h before UV, RA+UV, FIG. 16) is reported as “almost twice”. Moreover, the “Prevention of UV-induced reduction in collagen biosynthesis” value in assay [4] (pretreatment 24 hours before UV exposure) is reported as “a reduction in collagen biosynthesis was prevented”. Further, the “Prevention of UV-induced reduction in collagen synthesis” value in assay [4] (pretreatment eight hours before UV exposure) is listed as “did not appear to significantly prevent reduction in collagen synthesis”. Also, the “Reduction in expression of Type III procollagen mRNA after UV exposure” value in assay [5] is reported as “little, if any, reduction”. Also, in assay [6] (no UV), the “Amounts of Type III procollagen protein and pN precursor protein vs vehicle-treated skin, prior to UV exposure” value was “essentially the same amounts”. For the same compound, the “Amounts of Type III procollagen protein and pN precursor protein after UV vs control and retinoic acid-treated areas prior to exposure” value in assay [6] (pretreatment 24 h before 2 MEDs UV, RA+UV) is on record as “essentially the same amounts”. Moreover, in assay [7] (24 h after treatment, no UV, FIG. 10B vs 10A), the “Type I procollagen mRNA expression in fibroblasts vs vehicle-treated skin, prior to UV exposure” value is listed as “essentially the same in both”. In addition, the “Type I procollagen mRNA expression after UV exposure” value in assay [7] (pretreatment 24 h before UV, FIG. 10D) is given as “does not appear to evidence any loss in the mRNA signalling”.
